From patent US12029738B2, “Antiproliferative compounds and methods of use thereof” (Celgene Corporation, priority 2017, dated 2024)
“Also recorded” adds a separate entry of the source. Where two headings read alike, the source gives them in different places. Blank lines part the entries; values can stand above or below the molecule they belong to.

Assays:
U266 = assay: Flow cytometry proliferation/apoptosis assay (120 h); type: cell-based, human; conditions: for IC50: Homo sapiens, U-266, read-out: Antiproliferative Activity (Flow Cytometry) IC50; for induced apoptosis AUC (area under the dose response curve): scale 0-10000
Experimental: (§1) Methods. […] Using 5 mM stocks, compounds were pre-spotted into the appropriate wells of 96-well plates using a Hewlett-Packard D300 Digital Dispenser. Cells were added to 96-well plates using a Multidrop Combi Reagent Dispenser. After 5 days of treatment, flow cytometric analysis was used to determine the number of cells that were alive, dead, or apoptotic. After 5 days of treatment, cells were incubated with annexin V to stain exposed phosphatidylserine, an apoptotic cell-surface marker, and the vital dye 7-AAD, which is excluded from cells with intact cell membranes, and analyzed by flow cytometry (Attune®, Thermo Fisher). Analysis was then performed to determine the number of live cells (annexin V and 7-AAD double negative staining cells) and the percentage of apoptotic cells (annexin V positive cells) for each condition, relative to the DMSO control treated, was calculated. All described values were normalized to DMSO-only treated cells. All proliferation and apoptosis induction curves were processed and graphed as percent of control using XLFit (IDBS, Alameda, CA) and GraphPad Prism 7.03 (GraphPad Software, La Jolla, CA). The live cell count for every concentration was normalized to the DMSO control (considered as 100%) in Microsoft Excel to generate the proliferation curves. […] Similarly, for apoptosis analysis, the percentage of drug-induced apoptosis was calculated for all doses by combining both “early” (annexin V positive and 7-AAD negative) and “late” apoptosis (annexin V and 7-AAD positive) values and subtracting background values (cell treated with vehicle control DMSO). The AUC values for apoptosis curves were calculated by performing area under curve analysis on GraphPad Prism 7.03. The area under the dose-response curve (AUC) was calculated since it integrates potency and efficacy of the drugs to represent apoptosis into a single parameter. The IC50 values for Compound 2 and pomalidomide in the flow cytometry assays are presented Table 9.
(§2) The apoptosis induction effect of Compound 2 was assessed using flow cytometry after 120 h of treatment and compared with pomalidomide treatment. […] Each data point represents 2 independent experiments with at least two samples in each experiment. (Table 10).

IM-9 = assay: as above; type: cell-based, human; conditions: for IC50: Homo sapiens, read-out: Antiproliferative Activity (Flow Cytometry) IC50; for induced apoptosis AUC (area under the dose response curve): scale 0-10000
Experimental: as §1, §2

SK-MM-2 = assay: as above; type: cell-based, human; conditions: for IC50: Homo sapiens, SK-MM-2, read-out: Antiproliferative Activity (Flow Cytometry) IC50; for induced apoptosis AUC (area under the dose response curve): SKMM-2, scale 0-10000
Experimental: as §1, §2

OPM2-P10 = assay: as above; type: cell-based, human; conditions: for IC50: Homo sapiens, read-out: Antiproliferative Activity (Flow Cytometry) IC50; for induced apoptosis AUC (area under the dose response curve): scale 0-10000
Experimental: as §1, §2

L363 = assay: as above; type: cell-based, human; conditions: for IC50: Homo sapiens, L-363, read-out: Antiproliferative Activity (Flow Cytometry) IC50; for induced apoptosis AUC (area under the dose response curve): scale 0-10000
Experimental: as §1, §2

[1] = system: multiple myeloma and plasma cell leukemia cell lines (OPM2.P10, RPMI.8226, L363, JJN-3); assay: Combination with proteasome inhibitor pulse (flow cytometry, 72 h); type: cell-based, human; conditions: then Compound 2 72 h
Experimental: Twenty four hours prior to treatment with a proteasome inhibitor and test compound, an appropriate number of cells were split to a concentration of 0.2×10^6/mL in fresh media to allow for exponential growth. On the day of treatment, compounds were freshly solvated in DMSO. Proteasome inhibitors bortezomib or carfilzomib were diluted and added to pre-warmed culture media at the final working concentrations of 150 nM or 300 nM for bortezomib and 300 nM or 550 nM for carfilzomib. Proteasome inhibitor concentrations were determined based upon clinical Cmax concentrations as well as previous studies in each cell line which determined the duration and concentration of PI required to inhibit a specific amount of β5 proteasome activity. Cells were counted and an appropriate number were placed into media containing proteasome inhibitor and thoroughly mixed. After incubation for 1 h at 37° C., 5% CO2, cells were washed two times with 40 mL of complete media to remove the proteasome inhibitor. […] Plated cells were cultured at 37° C., 5% C02, for the remainder of the experiment, up to 72 h. Every 24 h, proteasome inhibition was monitored by the Cell-Based Proteasome-Glo Assay. Proliferation and apoptosis were measured at 72 h by flow cytometry. Cells were stained with APC Annexin-V and 7-AAD to enumerate the number of viable cells remaining in culture.
An in vitro cell assay was established in order to mimic the clinical pharmacokinetics (PK) and pharmacodynamics (PD) of exposure to proteasome inhibitors bortezomib and carfilzomib.

CYP2B6 = target: T1, CYP2B6 (Homo sapiens, UniProt P20813); assay: CYP inhibition in pooled human liver microsomes; type: in vitro ADME
T1 construct: from tissue; host or cells: pooled human liver microsomes
T1 sequence (P20813 1-491): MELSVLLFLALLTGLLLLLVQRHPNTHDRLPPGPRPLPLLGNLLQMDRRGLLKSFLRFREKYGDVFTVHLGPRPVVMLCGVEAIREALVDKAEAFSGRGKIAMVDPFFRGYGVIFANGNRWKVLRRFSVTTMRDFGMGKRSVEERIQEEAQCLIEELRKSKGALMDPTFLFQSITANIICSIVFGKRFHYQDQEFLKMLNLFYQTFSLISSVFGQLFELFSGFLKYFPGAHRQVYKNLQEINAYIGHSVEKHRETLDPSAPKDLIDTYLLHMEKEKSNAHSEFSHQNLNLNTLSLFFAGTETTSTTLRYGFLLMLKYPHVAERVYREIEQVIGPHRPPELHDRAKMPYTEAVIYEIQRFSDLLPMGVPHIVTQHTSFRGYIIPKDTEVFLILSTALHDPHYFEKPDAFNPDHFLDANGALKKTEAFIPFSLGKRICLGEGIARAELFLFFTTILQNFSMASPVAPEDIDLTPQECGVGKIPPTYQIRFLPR
Experimental: (§3) Methods. […] In addition, the compounds were evaluated for their potential to act as a time-dependent inhibitors at the same concentrations mentioned above. […] In addition to appropriate vehicle controls, known direct inhibitors and time-dependent inhibitors of CYP isoforms were included as positive controls. Following the incubation, concentrations of probe substrate metabolites were quantified using established LC/MS/MS methods. The extent of inhibition was expressed as the percentage of control activity.

CYP2C19 = target: T2, CYP2C19 (Homo sapiens, UniProt P33261); assay: CYP inhibition in pooled human liver microsomes; type: in vitro ADME
T2 construct: from tissue; host or cells: pooled human liver microsomes
Experimental: as §3

CYP3A4/5 = assay: CYP inhibition in pooled human liver microsomes; type: in vitro ADME
Experimental: as §3

CYP2C9 = target: T3, CYP2C9 (Homo sapiens, UniProt P11712); assay: CYP inhibition in pooled human liver microsomes; type: in vitro ADME
T3 construct: from tissue; host or cells: pooled human liver microsomes
Experimental: as §3

[2] = system: lenalidomide-resistant NCI-H929 (H929-1051) multiple myeloma/plasmacytoma tumors; assay: H929-1051 xenograft, Compound 2 alone and with bortezomib; type: in vivo, mouse
[3] = system: unstimulated primary human PBMCs; assay: Anti-proliferative counter-screen (CellTiter-Glo, 72 h); type: cell-based; conditions: PBMC
[4] = up to 30 μM, 30 minute preincubation with or without NADPH
[5] = up to / at 30 μM, human liver microsomes

T2 sequence (P33261 whole entry): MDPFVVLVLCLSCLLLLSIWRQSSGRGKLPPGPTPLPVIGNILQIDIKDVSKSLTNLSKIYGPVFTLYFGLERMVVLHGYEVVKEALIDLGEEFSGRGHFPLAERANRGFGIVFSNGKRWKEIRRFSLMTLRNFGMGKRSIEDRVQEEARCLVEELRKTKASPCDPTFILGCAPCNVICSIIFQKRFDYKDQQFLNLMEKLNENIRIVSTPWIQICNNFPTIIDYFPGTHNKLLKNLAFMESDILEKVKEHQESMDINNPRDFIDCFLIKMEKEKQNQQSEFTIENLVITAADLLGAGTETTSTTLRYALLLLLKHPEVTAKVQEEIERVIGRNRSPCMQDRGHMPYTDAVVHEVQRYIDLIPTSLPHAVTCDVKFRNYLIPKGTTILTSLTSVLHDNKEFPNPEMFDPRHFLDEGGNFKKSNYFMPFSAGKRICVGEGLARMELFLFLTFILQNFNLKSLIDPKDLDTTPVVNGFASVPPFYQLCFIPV
T3 sequence (P11712 whole entry): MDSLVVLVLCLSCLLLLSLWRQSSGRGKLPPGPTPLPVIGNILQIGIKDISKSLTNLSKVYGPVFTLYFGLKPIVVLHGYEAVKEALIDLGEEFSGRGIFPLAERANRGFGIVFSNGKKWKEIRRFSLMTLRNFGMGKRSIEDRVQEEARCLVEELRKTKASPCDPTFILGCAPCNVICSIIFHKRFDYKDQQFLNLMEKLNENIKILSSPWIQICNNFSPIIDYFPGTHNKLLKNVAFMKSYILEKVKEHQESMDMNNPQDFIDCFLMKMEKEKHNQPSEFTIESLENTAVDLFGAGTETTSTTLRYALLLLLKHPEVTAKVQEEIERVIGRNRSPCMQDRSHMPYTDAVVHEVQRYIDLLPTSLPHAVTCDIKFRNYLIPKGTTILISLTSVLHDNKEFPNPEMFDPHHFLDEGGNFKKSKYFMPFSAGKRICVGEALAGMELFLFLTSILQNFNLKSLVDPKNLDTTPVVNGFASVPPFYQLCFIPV

SMILES: N#Cc1ccc(N2CCN(Cc3ccc(COc4cccc5c4CN([C@H]4CCC(=O)NC4=O)C5=O)cc3)CC2)c(F)c1 [Compound 2, (S)-4-(4-(4-(((2-(2,6-dioxopiperidin-3-yl)-1-oxoisoindolin-4-yl)oxy)methyl)benzyl)piperazin-1-yl)-3-fluorobenzonitrile]
IC50 (U266): 0.19 nM | induced apoptosis AUC (area under the dose response curve) (U266): 927.8 | IC50 (IM-9): 5570 nM | induced apoptosis AUC (area under the dose response curve) (IM-9): 323.9 | IC50 (SK-MM-2): 0.82 nM | induced apoptosis AUC (area under the dose response curve) (SK-MM-2): 3204 | IC50 (OPM2-P10): 1.81 nM | induced apoptosis AUC (area under the dose response curve) (OPM2-P10): 1768 | IC50 (L363): 0.16 nM | induced apoptosis AUC (area under the dose response curve) (L363): 347 | effect in combination with bortezomib ([1]; 1 h bortezomib pulse, OPM2.P10, RPMI.8226, JJN-3): demonstrated a combination effect | effect in combination with carfilzomib ([1]; 1 h carfilzomib pulse, 4 cell lines): combination effects with Compound 2 were demonstrated in all 4 cell lines | inhibition at 30 µM (CYP2B6; human, microsomes): ≤ 30% | IC50 (CYP2C19): > 30000 nM | inhibition at 30 µM (CYP2C19; human, microsomes): 41% | IC50 (CYP3A4/5; human, microsomes): > 30000 nM | inhibition at 30 µM (CYP3A4/5; human, microsomes, direct inhibition of CYP3A4/5 (testosterone)): 46% | inhibition at 30 µM (CYP3A4/5; human, microsomes, inhibition of CYP3A4/5 (testosterone) activity after preincubation with NADPH): 59% | inhibition at 30 µM (CYP3A4/5; human, microsomes, inhibition of CYP3A4/5 (testosterone) activity after preincubation without NADPH): 23% | inhibition at 30 µM (CYP2C9; human, microsomes): ≤ 30% | tumor volume reduction (TVR) ([2]; Compound 2 1 mg/kg qd×3 in combination with bortezomib 1 mg/kg single dose, day 50): 98% | combination antitumor activity (fractional product method) ([2]; Compound 2 1 mg/kg with second agent 1 mg/kg): synergistic | animals that became tumor free and remained tumor free ([2]; combination of Compound 2 and bortezomib, by day 53): 7 out of 9 | tumor growth inhibition / tumor volume reduction (TVR) ([2]; single agent Compound 2 1 mg/kg qd×3 (days 31-33), day 50): 44% | day by which tumors reached approximately 2000 mm^3 ([2]; single agent, 1 mg/kg): 58 days | IC50 [3]: > 10000 nM

SMILES: O=C1CC[C@H](N2Cc3c(OCc4ccc(CN5CCN(c6ccc(F)cc6F)CC5)cc4)cccc3C2=O)C(=O)N1 [Compound B]
time-dependent inhibition of CYP2B6 (CYP2B6; [4]): little to no time-dependent inhibition; also recorded: not a time-dependent inhibitor | direct inhibition of CYP2B6 (CYP2B6; [5]): 59% | direct inhibition of CYP2C19 (CYP2C19; at 30 μM, human liver microsomes): 45% | time-dependent inhibition of CYP2C19 (CYP2C19; [4]): little to no time-dependent inhibition; also recorded: not a time-dependent inhibitor | IC50 (CYP3A4/5; 30 minute preincubation with NADPH, substrate midazolam, read-out: shifted IC50 value (with NADPH) CYP3A4/5, midazolam): 2230 nM | IC50 (CYP3A4/5; 30 minute preincubation with NADPH, substrate testosterone, read-out: shifted IC50 value (with NADPH) CYP3A4/5, testosterone): 1930 nM | IC50 (CYP3A4/5; substrate testosterone, read-out: direct inhibition IC50 CYP3A4/5 (testosterone)): 2920 nM | time-dependent inhibition of CYP3A4/5 (overall finding) (CYP3A4/5; up to 30 μM, 30 minute preincubation): inhibited CYP3A4/5 in a time-dependent manner; also recorded: time-dependent inhibitor of CYP3A4/5 | direct inhibition of CYP3A4/5 (midazolam) (CYP3A4/5; up to 30 μM, substrate midazolam): up to 30% | time-dependent inhibition of CYP2C9 (CYP2C9; [4]): little to no time-dependent inhibition; also recorded: not a time-dependent inhibitor | direct inhibition of CYP2C9 (CYP2C9; [5]): 38%

IC50 (U266): 381 nM | IC50 (SK-MM-2): > 10000 nM
SMILES: Nc1cccc2c1C(=O)N(C1CCC(=O)NC1=O)C2=O (centres unmarked) [Pomalidomide, pomalidomide]
induced apoptosis AUC (area under the dose response curve) (U266): 373 | IC50 (IM-9): > 10000 nM | induced apoptosis AUC (area under the dose response curve) (IM-9): 25.4 | induced apoptosis AUC (area under the dose response curve) (SK-MM-2): 1033 | IC50 (OPM2-P10): > 10000 nM | induced apoptosis AUC (area under the dose response curve) (OPM2-P10): 108.7 | IC50 (L363): > 10000 nM | induced apoptosis AUC (area under the dose response curve) (L363): 293
